Assay results published in paper PMC4676410 (Journal of medicinal chemistry, 2015).
Where “and” joins values, the source holds several entries; their conditions need not be identical. Equal values may be shown once. Read-outs that look alike come from different tables or passages of the source.

Columns and labels:
[1] = system: laboratory-adapted HIV-1 strains; experiment: microbe, parasite or virus in culture; format: cell-based
[2] = system: HIV-1HXB2 (CXCR4-tropic) pseudovirus; experiment: Single-cycle infection assay in U87-CD4-CXCR4 cells; settings: U87-CD4-CXCR4, HIV-1HXB2
[3] = system: HIV-1ADA; experiment: CD4-dependent CCR5-tropic HIV-1 cell-cell transmission assay; format: cell-based; settings: read-out: IC50, CCR5-tropic HIV-1 cell-cell transmission; Ghost X4/R5 and MOLT-4/HIV-1ADA, p24
[4] = system: lab-adapted and primary HIV-1 isolates; experiment: microbe, parasite or virus in culture; format: cell-based; settings: PBMC
[5] = system: A-MLV; experiment: microbe, parasite or virus in culture; format: cell-based; settings: control, A-MLV envelope pseudovirus
[6] = biological target: HIV-1 reverse transcriptase (RT) (Human immunodeficiency virus type 1 group M subtype B, UniProt P12497); experiment: HIV-1 reverse transcriptase; settings: read-out: IC50, HIV-1 reverse transcriptase (RT) assay
[7] = system: HIV-1IIIB; experiment: CD4-dependent CXCR4-tropic HIV-1 cell-cell transmission assay; format: cell-based; settings: read-out: IC50, CXCR4-tropic HIV-1 cell-cell transmission; Ghost X4/R5 and H9/HIV-1IIIB, p24
[8] = system: HIV-1 Env pseudoviruses; format: cell-based
[9] = system: HIV-1ADA (CCR5-tropic) pseudovirus; experiment: Single-cycle infection assay in U87-CD4-CCR5 cells; settings: U87-CD4-CCR5, HIV-1ADA
[10] = biological target: HIV-1 integrase (Human immunodeficiency virus type 1 group M subtype B, UniProt P04585); experiment: HIV-1 integrase assay; format: biochemical; settings: read-out: IC50, HIV-1 integrase assay
[11] = system: U87-CD4-CCR5 cells; experiment: Cytotoxicity in U87-CD4-CCR5 cells; format: cell-based
[12] = system: MT-2 cells; experiment: Cytotoxicity in MT-2 cells; format: cell-based
[13] = system: TZM-bl cells; experiment: Cytotoxicity in TZM-bl cells; format: cell-based
[14] = system: VSV-G; experiment: microbe, parasite or virus in culture; format: cell-based; settings: control, VSV-G envelope pseudovirus
[15] = system: U87-CD4-CXCR4 cells; experiment: Cytotoxicity in U87-CD4-CXCR4 cells; format: cell-based
[16] = system: PBMC; experiment: Cytotoxicity in PBMCs; format: cell-based, human
[17] = system: YU2 core gp120; experiment: SPR: binding of YU2 core gp120 to captured mAb 17b in presence of compounds; set-up: species or system HIV-1; settings: sCD4 15-fold excess, compounds 50-fold excess
[18] = system: fusion between MAGI-CCR5 and HL 2/3 cells; experiment: HIV-1 cell-cell fusion assay; format: cell-based; settings: read-out: IC50, cell-cell fusion assay; MAGI-CCR5 and HL 2/3 cells
[19] = system: HIV-1 Env pseudoviruses; settings: data previously published ref 19, cited from earlier work

Q: For Cc1nc(C(NC(=O)c2ccc(-c3ccc(Cl)cc3)[nH]2)C2CCCCN2)sc1CO (centres unmarked) [NBD-11021A, 5-(4-Chlorophenyl)-N-((5-(hydroxymethyl)-4-methylthiazol-2-yl)-(piperidin-2-yl)methyl)-1H-pyrrole-2-carboxamide], which IC50 ([1]; MT-2, HIV-1IIIB) is on record?
A: The IC50 was 1.3 ± 0.2 µM.

Q: And the IC50 [2]?
A: The IC50 was 3 ± 0.4 µM.

Q: What does the source list for CC1(C)CC(NC(=O)C(=O)Nc2ccc(Cl)cc2)CC(C)(C)N1 [NBD-556]?
A: IC50 ([1]; RT inhibitor-resistant isolate AZT-R, subtype B, MT-2, X4): 58 ± 14.3 µM; IC50 ([1]; fusion inhibitor-resistant isolate pNL4-3 gp41(36G)V38E,N42S, subtype B, MT-2, X4): 11 ± 0.9 µM; IC50 ([1]; laboratory strain MN, subtype B, MT-2, X4): 15.9 ± 1.6 µM; IC50 ([1]; laboratory strain RF, subtype B, MT-2, R5X4): 18.7 ± 1.3 µM; IC50 ([1]; laboratory strain SF2, subtype B, MT-2, R5X4): ≥ 118 µM; IC50 ([1]; protease inhibitor-resistant isolate HIV-1RF/L-323-12-3, subtype B, MT-2, X4): < 59 µM; IC50 [3]: ~60 µM; IC50 ([4]; laboratory strain 89.6, subtype B, R5X4): 4.8 ± 1 µM; IC50 ([4]; laboratory strain BaL, subtype B, R5): ≥ 118 µM; IC50 ([4]; laboratory strain SF162, subtype B, R5): 48.9 ± 7.3 µM; IC50 ([4]; primary isolate 92US657, subtype B, R5): 48 ± 1.65 µM; IC50 ([4]; primary isolate 93MW959, subtype C, R5): 57.2 ± 8.7 µM; IC50 ([4]; primary isolate 93TH060, subtype E, R5): > 45 µM; IC50 ([4]; primary isolate RU570, subtype G, R5): 19.5 ± 2.3 µM; IC50 [5]: > 60 µM; IC50 [6]: > 200 µM; IC50 [7]: ~60 µM; IC50 [8]: 11.5 µM and 9.4 µM; IC50 ([8]; TZM-bl, HIV-1HXB2): 6.9 ± 0.9 µM; share of viruses showing sensitivity at ≤3 μM ([8]; panel of 56 HIV-1 Env pseudoviruses): 7%; IC50 ([8]; subtype A2/D, NIH #11906, QG393.60M.ENV.B7): 3.5 ± 0.2 µM; IC50 ([8]; subtype A2/D, NIH #11907, QG393.60M.ENV.B8): 3.6 ± 0.1 µM; IC50 ([8]; subtype A, KNH1144): 20 ± 3.2 µM; IC50 ([8]; subtype A, NIH #11888, QB726.70M.ENV.C4): 20.2 ± 6 µM; IC50 ([8]; subtype A, NIH #11889, QB726.70M.ENV.B3): 11.3 ± 2.5 µM; IC50 ([8]; subtype A, NIH #11890, QF495.23M.ENV.A1): 13.6 ± 2.3 µM; IC50 ([8]; subtype A, NIH #11891, QF495.23M.ENV.A3): 27.8 ± 9.3 µM; IC50 ([8]; subtype A, NIH #11892, QF495.23M.ENV.B2): 20.4 ± 7 µM; IC50 ([8]; subtype A/E, AA058): 4.1 ± 0.8 µM; IC50 ([8]; subtype A/E, CM244): 5.6 ± 0.8 µM; IC50 ([8]; subtype A/E, NIH #11603 (potential), CRF01_AE clone 269): 10.7 ± 1.5 µM; IC50 ([8]; subtype A/G, NIH #11601, CRF02_AG clone 263): 7 ± 2.2 µM; IC50 ([8]; subtype A/G, NIH #11602, CRF02_AG clone 266): 4.6 ± 1.6 µM; IC50 ([8]; subtype A/G, NIH #11605, CRF02_AG clone 278): 6.5 ± 1.1 µM; IC50 ([8]; subtype B, B41): 4.5 ± 2 µM; IC50 ([8]; subtype B, NIH #11018, QH0692, clone 42): 2 ± 0.6 µM; IC50 ([8]; subtype B, NIH #11022, PVO, clone 4): 3.5 ± 0.7 µM; IC50 ([8]; subtype B, NIH #11023, TRO, clone 11): 4.1 ± 0.6 µM; IC50 ([8]; subtype B, NIH #11033, pWIT04160 clone 33): 4.8 ± 0.8 µM; IC50 ([8]; subtype B, NIH #11035, PREJ04541 clone 67): 3.4 ± 0.2 µM; IC50 ([8]; subtype B, NIH #11036, pRHPA4259 clone 7): 4.3 ± 0.5 µM; IC50 ([8]; subtype B, NIH #11037, PTHR04156 clone 18): 8.4 ± 2.4 µM; IC50 ([8]; subtype B, NIH #11563, p1058_11.B11.1550, R5X4-tropic): 1.9 ± 1 µM; IC50 ([8]; subtype C, NIH #11306, Du156, clone 12): 5 ± 0.9 µM; IC50 ([8]; subtype C, NIH #11307, Du172, clone 17): 4.8 ± 0.2 µM; IC50 ([8]; subtype C, NIH #11308, Du422, clone 1): 6.1 ± 0.5 µM; IC50 ([8]; subtype C, NIH #11309, ZM197M.PB7): 3.8 ± 0.3 µM; IC50 ([8]; subtype C, NIH #11310, ZM214M.PL15): 4.1 ± 0.7 µM; IC50 ([8]; subtype C, NIH #11311, ZM233M.PB6): 6.6 ± 0.8 µM; IC50 ([8]; subtype C, NIH #11312, ZM249M.PL1): 6.1 ± 0.3 µM; IC50 ([8]; subtype C, NIH #11313, ZM53M.PB12): 14.6 ± 1 µM; IC50 ([8]; subtype C, NIH #11314, ZM109F.PB4): 6.2 ± 0.3 µM; IC50 ([8]; subtype C, NIH #11315, ZM135M.PL10a): 2.2 ± 0.6 µM; IC50 ([8]; subtype C, NIH #11316, CAP45.2.00.G3): 9.6 ± 0.3 µM; IC50 ([8]; subtype C, NIH #11317, CAP210.2.00.E8): 5.3 ± 0.6 µM; IC50 ([8]; subtype C, NIH #11908, QB099.391 M.ENV.B1): 5.7 ± 0.9 µM; IC50 ([8]; subtype C, NIH #11909, QB099.391 M.ENV.C8): 3.6 ± 0.9 µM; IC50 ([8]; subtype C, NIH #11910, QC406.70M.ENV.F3): 3.6 ± 0.9 µM; IC50 ([8]; subtype D, NIH #11911, QA013.70I.ENV.H1): 9.4 ± 2.6 µM; IC50 ([8]; subtype D, NIH #11912, QA013.70I.ENV.M12): 5.4 ± 0.3 µM; IC50 ([8]; subtype D, NIH #11914, QA465.59M.ENV.D1): 6.1 ± 0.5 µM; IC50 ([8]; subtype D, NIH #11916, QD435.100M.ENV.B5): 4.4 ± 1 µM; IC50 ([8]; subtype D, NIH #11918, QD435.100M.ENV.E1): 6.2 ± 1.7 µM; IC50 [9]: 7.4 ± 0.8 µM; IC50 [10]: > 200 µM; CC50 [11]: ~60 µM; CC50 [12]: > 280 µM; CC50 [13]: ~60 µM; IC50 [14]: > 60 µM; IC50 [2]: 9.5 ± 0.6 µM; CC50 [15]: ~60 µM; CC50 [16]: > 280 µM; enhancement of mAb 17b binding to YU2 core gp120 (in words) [17]: highest enhancement; IC50 [18]: 6.5 µM; IC50 ([19]; subtype A, NIH #11887, Q259env.w6): 6.9 ± 0.9 µM; IC50 ([19]; subtype A/D, NIH #11901, QA790.204I.ENV.A4): 12.3 ± 1.8 µM; IC50 ([19]; subtype A/D, NIH #11903, QA790.204I.ENV.C8): 5 ± 1 µM; IC50 ([19]; subtype A/D, NIH #11904, QA790.204I.ENV.E2): 7.1 ± 0.5 µM; IC50 ([19]; subtype B, NIH #11024, AC10.0, clone 29): 8.9 ± 3 µM; IC50 ([19]; subtype B, NIH #11038, pCAAN5342 clone A2): 2.4 ± 0.3 µM; IC50 ([19]; subtype B, NIH #11058, SC422661.8): 4.8 ± 0.4 µM; IC50 ([19]; subtype B, NIH #11578, pWEAUd15.410.5017, R5X4-tropic): 4.9 ± 0.8 µM; IC50 ([19]; subtype D, NIH #11913, QA465.59M.ENV.A1): 4.8 ± 0.2 µM

Q: With COc1ccnc2[nH]cc(C(=O)C(=O)N3CCN(C(=O)c4ccccc4)C[C@H]3C)c12 [BMS-378806] as the compound, how does the IC50 [18] read?
A: Its IC50 is 0.014 µM.
